From PubChem BioAssay AID248 (DTP/NCI, 2004)
Several values for one entry are separate records, joined by “and”; a condition that tells them apart may be missing. Equal entries are not always repeated. Toxic doses and inconclusive results are not listed.

Tested on: L1210 leukemia ip in BDF1 mice, survival T/C
Assay: NCI In Vivo Anticancer Drug Screen. Data for tumor model L1210 Leukemia (intraperitoneal) in B6D2F1 (BDF1) mice
Details: endpoint: mean survival time, higher = longer survival
In short: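 Tumor cells were implanted, animals were treated, and survival was followed. The result divides the treated measurement by the vehicle-control measurement.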

[1] = dose: 400.0 mg/kg/injection, schedule: Q01DX001 (ip), vehicle: saline
[2] = dose: 100.0 mg/kg/injection, schedule: Q01DX001 (ip), vehicle: saline with Tween-80
[3] = dose: 200.0 mg/kg/injection, schedule: Q01DX001 (ip), vehicle: saline with Tween-80
[4] = dose: 200.0 mg/kg/injection, schedule: Q01DX001 (ip), vehicle: saline
[5] = dose: 200.0 mg/kg/injection, schedule: Q01DX001 (ip), vehicle: carboxymethylcellulose (CMC)
[6] = dose: 100.0 mg/kg/injection, schedule: Q04DX002 (ip), vehicle: saline with Tween-80
[7] = dose: 200.0 mg/kg/injection, schedule: Q04DX002 (ip), vehicle: saline with Tween-80
[8] = dose: 400.0 mg/kg/injection, schedule: Q04DX002 (ip), vehicle: saline with Tween-80
[9] = dose: 100.0 mg/kg/injection, schedule: Q04DX003 (ip), vehicle: saline with Tween-80
[10] = dose: 200.0 mg/kg/injection, schedule: Q04DX003 (ip), vehicle: saline with Tween-80
[11] = dose: 400.0 mg/kg/injection, schedule: Q04DX003 (ip), vehicle: saline with Tween-80
[12] = dose: 100.0 mg/kg/injection, schedule: Q01DX001 (ip), vehicle: saline

[B-][NH2+]CC[NH2+][B-]
T/C [1]: 117 % of control

CC(=O)OC1CSC1OC(C)=O (centres undefined)
T/C [2]: 95 % of control | T/C [3]: 93 % of control | T/C (dose: 400.0 mg/kg/injection, schedule: Q01DX001 (ip), vehicle: saline with Tween-80): 98 % of control

CCCCCCCCCCCCCCOc1ccc(F)cc1F
T/C (dose: 100.0 mg/kg/injection, schedule: Q04DX002 (ip), vehicle: Klucel (hydroxypropylcellulose) (HPC)): 111 % of control | T/C (dose: 200.0 mg/kg/injection, schedule: Q04DX002 (ip), vehicle: Klucel (hydroxypropylcellulose) (HPC)): 107 % of control | T/C (dose: 400.0 mg/kg/injection, schedule: Q04DX002 (ip), vehicle: Klucel (hydroxypropylcellulose) (HPC)): 96 % of control

CCOCC(=O)CC(C)(C)C
T/C (dose: 50.0 mg/kg/injection, schedule: Q01DX009 (ip), vehicle: saline with Tween-80): 92 % of control | T/C (dose: 100.0 mg/kg/injection, schedule: Q01DX009 (ip), vehicle: saline with Tween-80): 92 % of control | T/C (dose: 200.0 mg/kg/injection, schedule: Q01DX009 (ip), vehicle: saline with Tween-80): 103 % of control

COc1ccccc1C(=O)OCC(=O)c1ccc(-c2ccccc2)cc1
T/C [4]: 91 % of control | T/C [1]: 94 % of control

CCN(CC)CCSc1nc2ccccc2[nH]1
T/C (dose: 55.0 mg/kg/injection, schedule: Q01DX Z (ip), vehicle: saline): 104 % of control | T/C (dose: 83.0 mg/kg/injection, schedule: Q01DX Z (ip), vehicle: saline): 91 % of control | T/C (dose: 125.0 mg/kg/injection, schedule: Q01DX Z (ip), vehicle: saline): 94 % of control

CCCCCCOC(=O)c1cccc2c1-c1ccccc1C2=O
T/C (dose: 100.0 mg/kg/injection, schedule: Q01DX001 (ip), vehicle: carboxymethylcellulose (CMC)): 93 % of control | T/C [5]: 93 % of control | T/C (dose: 400.0 mg/kg/injection, schedule: Q01DX001 (ip), vehicle: carboxymethylcellulose (CMC)): 98 % of control

C=CC[N+](CC=C)(CC=C)CCC[N+](CC=C)(CC=C)CC=C
T/C (dose: 12.5 mg/kg/injection, schedule: Q01DX009 (ip), vehicle: water): 98 % of control | T/C (dose: 25.0 mg/kg/injection, schedule: Q01DX009 (ip), vehicle: water): 98 % of control and 101 % of control | T/C (dose: 50.0 mg/kg/injection, schedule: Q01DX009 (ip), vehicle: water): 102 % of control and 108 % of control

CN(C)C(=O)NC1CCc2ccc([N+](=O)[O-])cc21 (centres undefined)
T/C [6]: 97 % of control | T/C [7]: 108 % of control | T/C [8]: 119 % of control

O=C(Nc1cccc(Cl)c1)SCCSC(=O)Nc1cccc(Cl)c1
T/C [2]: 88 % of control | T/C [9]: 98 % of control | T/C [3]: 93 % of control | T/C [10]: 87 % of control | T/C [11]: 88 % of control

COC(=O)CC(Cc1cc(OC)ccc1OC)(C(=O)OC)C(=O)OC
T/C (dose: 12.5 mg/kg/injection, schedule: Q04DX003 (ip), vehicle: Klucel (hydroxypropylcellulose) (HPC)): 102 % of control | T/C (dose: 25.0 mg/kg/injection, schedule: Q04DX003 (ip), vehicle: Klucel (hydroxypropylcellulose) (HPC)): 94 % of control | T/C (dose: 50.0 mg/kg/injection, schedule: Q04DX003 (ip), vehicle: Klucel (hydroxypropylcellulose) (HPC)): 98 % of control | T/C (dose: 100.0 mg/kg/injection, schedule: Q01DX001 (ip), vehicle: Klucel (hydroxypropylcellulose) (HPC)): 106 % of control | T/C (dose: 100.0 mg/kg/injection, schedule: Q04DX003 (ip), vehicle: Klucel (hydroxypropylcellulose) (HPC)): 105 % of control | T/C (dose: 200.0 mg/kg/injection, schedule: Q01DX001 (ip), vehicle: Klucel (hydroxypropylcellulose) (HPC)): 97 % of control | T/C (dose: 200.0 mg/kg/injection, schedule: Q04DX003 (ip), vehicle: Klucel (hydroxypropylcellulose) (HPC)): 103 % of control | T/C (dose: 400.0 mg/kg/injection, schedule: Q01DX001 (ip), vehicle: Klucel (hydroxypropylcellulose) (HPC)): 98 % of control | T/C (dose: 400.0 mg/kg/injection, schedule: Q04DX003 (ip), vehicle: Klucel (hydroxypropylcellulose) (HPC)): 105 % of control

Ic1ccc(/C=N/Nc2nnc(N/N=C/c3ccc(I)cc3)c3ccccc23)cc1
T/C (dose: 50.0 mg/kg/injection, schedule: Q01DX001 (ip), vehicle: saline): 98 % of control | T/C [12]: 96 % of control | T/C [4]: 98 % of control | T/C [1]: 98 % of control

O=C(O)CNc1cc(S(=O)(=O)O)cc2cc(S(=O)(=O)O)c(N=Nc3cc(S(=O)(=O)O)cc4cc(S(=O)(=O)O)cc(O)c34)c(O)c12
T/C (dose: 100.0 mg/kg/injection, schedule: Q01DX001 (ip), vehicle: other): 101 % of control | T/C (dose: 200.0 mg/kg/injection, schedule: Q01DX001 (ip), vehicle: other): 104 % of control

COC(=O)C#CC(c1ccccc1)(c1ccccc1)c1ccccc1
T/C [9]: 90 % of control | T/C [10]: 87 % of control | T/C [11]: 90 % of control

NC(=O)COc1c(Cl)cc(Cl)cc1Cl
T/C [6]: 103 % of control | T/C [7]: 103 % of control | T/C [8]: 100 % of control

Cc1cc(Cl)ccc1NC(=O)Nc1c(Oc2ccc(Cl)cc2)ccc(Cl)c1S(=O)(=O)O
T/C (dose: 50.0 mg/kg/injection, schedule: Q01DX009 (ip), vehicle: saline): 104 % of control | T/C (dose: 50.0 mg/kg/injection, schedule: Q04DX003 (ip), vehicle: saline): 95 % of control | T/C (dose: 100.0 mg/kg/injection, schedule: Q01DX009 (ip), vehicle: saline): 104 % of control | T/C (dose: 100.0 mg/kg/injection, schedule: Q04DX003 (ip), vehicle: saline): 97 % of control | T/C (dose: 200.0 mg/kg/injection, schedule: Q01DX009 (ip), vehicle: saline): 100 % of control | T/C (dose: 200.0 mg/kg/injection, schedule: Q04DX003 (ip), vehicle: saline): 103 % of control

CCN(CC)P(=O)(N1CC1(C)C)N1CC1(C)C (centres undefined)
T/C (dose: 88.0 mg/kg/injection, schedule: Q01DX001 (ip), vehicle: carboxymethylcellulose (CMC)): 114 % of control | T/C (dose: 88.0 mg/kg/injection, schedule: Q01DX001 (ip), vehicle: saline): 102 % of control | T/C [12]: 118 % of control | T/C (dose: 133.0 mg/kg/injection, schedule: Q01DX001 (ip), vehicle: carboxymethylcellulose (CMC)): 118 % of control | T/C (dose: 133.0 mg/kg/injection, schedule: Q01DX001 (ip), vehicle: saline): 107 % of control | T/C [5]: 114 % of control | T/C (dose: 300.0 mg/kg/injection, schedule: Q01DX001 (ip), vehicle: saline): 115 % of control

CCC(=O)NC1=C(N2CC2)C(=O)C(NC(=O)CC)=C(N2CC2)C1=O
T/C (dose: 0.31 mg/kg/injection, schedule: Q01DX009 (ip), vehicle: Klucel (hydroxypropylcellulose) (HPC)): 121 % of control | T/C (dose: 1.25 mg/kg/injection, schedule: Q01DX001 (ip), vehicle: saline with Tween-80): 115 % of control | T/C (dose: 1.25 mg/kg/injection, schedule: Q01DX001 (ip), vehicle: saline): 108 % of control | T/C (dose: 1.25 mg/kg/injection, schedule: Q01DX009 (ip), vehicle: Klucel (hydroxypropylcellulose) (HPC)): 162 % of control | T/C (dose: 2.5 mg/kg/injection, schedule: Q01DX001 (ip), vehicle: saline): 119 % of control | T/C (dose: 2.5 mg/kg/injection, schedule: Q04DX003 (ip), vehicle: Klucel (hydroxypropylcellulose) (HPC)): 175 % of control | T/C (dose: 5.0 mg/kg/injection, schedule: Q01DX001 (ip), vehicle: saline with Tween-80): 167 % of control | T/C (dose: 5.0 mg/kg/injection, schedule: Q01DX009 (ip), vehicle: Klucel (hydroxypropylcellulose) (HPC)): 104 % of control | T/C (dose: 5.0 mg/kg/injection, schedule: Q01DX009 (ip), vehicle: saline): 100 % of control | T/C (dose: 5.0 mg/kg/injection, schedule: Q04DX003 (ip), vehicle: Klucel (hydroxypropylcellulose) (HPC)): 102 % of control | T/C (dose: 10.0 mg/kg/injection, schedule: Q01DX001 (ip), vehicle: saline with Tween-80): 169 % of control | T/C (dose: 10.0 mg/kg/injection, schedule: Q01DX009 (ip), vehicle: saline): 93 % of control | T/C (dose: 10.0 mg/kg/injection, schedule: Q04DX003 (ip), vehicle: Klucel (hydroxypropylcellulose) (HPC)): 90 % of control

CC1(C)OC2COC(CN(N=O)C(N)=O)C2O1 (centres undefined)
T/C (dose: 75.0 mg/kg/injection, schedule: Q01DX001 (ip), vehicle: saline): 122 % of control

Cc1cc(O)c2c(c1O)C(=O)C13C(=C2O)C(=O)C2C(O)C1C1C(O)C3C(=O)C3=C(O)c4c(O)cc(C)c(O)c4C(=O)C321 (centres undefined)
T/C (dose: 12.5 mg/kg/injection, schedule: Q04DX003 (ip), vehicle: saline with Tween-80): 93 % of control | T/C (dose: 25.0 mg/kg/injection, schedule: Q04DX003 (ip), vehicle: saline with Tween-80): 106 % of control
